According to ChEMBL document CHEMBL1135798, “Structure-activity relationships of the antimalarial agent artemisinin. 6. The development of predictive in vitro potency models using CoMFA and HQSAR methodologies” (2002):

Tested on: Plasmodium falciparum
Assay: Antimalarial activity against chloroquine-resistant, mefloquine-sensitive Plasmodium falciparum W2
Format: functional

Compound	Log RA
CC(C)CC[C@H]1C(=O)O[C@@H]2O[C@@]3(C)CC[C@H]4[C@H](C)CC[C@@H]1[C@@]24O3	-4
C[C@@H]1CC[C@@H]2[C@]34OO[C@](C)(CC[C@@H]13)O[C@H]4OC(Nc1ncccn1)[C@@]2(C)Br (some centres undefined)	-0.77
CCO[C@H]1O[C@@H]2O[C@@]3(C)CC[C@H]4C(C(F)F)CC[C@@H]([C@H]1C)[C@@]24OO3 (some centres undefined)	0.41
CCOC1C[C@@H]2CC[C@@H](C)[C@@H]3CC[C@@]4(C)OO[C@@]23[C@H](O1)O4 (some centres undefined)	0.43
C[C@@H]1CC[C@H]2[C@@H](C)CO[C@@H]3O[C@@]4(C)CC[C@@H]1[C@]32OO4	0.75
CCC[C@H]1C(OCC)O[C@@H]2O[C@@]3(C)CC[C@H]4[C@H](C)CC[C@@H]1[C@@]24OO3 (some centres undefined)	-0.04
CC(C)CC[C@H]1C(=O)O[C@@H]2O[C@@]3(C)CC[C@H]4[C@H](C)CC[C@@H]1[C@@]24OO3	0.07
C[C@@H]1CC[C@H]2[C@@H](C)C(CC(F)F)O[C@@H]3O[C@@]4(C)CC[C@@H]1[C@]32OO4 (some centres undefined)	0.11
C[C@@H]1CC[C@H]2[C@H]3CCCO[C@H]3O[C@@H]3O[C@@]4(C)CC[C@@H]1[C@]32OO4	0.23
CCCC[C@H]1C(=O)OC2OC(C)(C)OO[C@@]23CCCCC13 (some centres undefined)	-1.13
CCOP(=O)(OCC)OCC[C@@H]1CCC[C@@H]2CC[C@@]3(C)OO[C@]21[C@@H](OC)O3	0.37
C[C@@H]1CC[C@H]2CC(=O)N(Cc3ccccc3)[C@@H]3O[C@@]4(C)CC[C@@H]1[C@@]23OO4	0.34
C[C@@H]1CC[C@H]2[C@@H](C)C(CCCO)O[C@@H]3O[C@@]4(C)CC[C@@H]1[C@]32OO4 (some centres undefined)	0.78
COC(=O)CCCOC1O[C@@H]2O[C@@]3(C)CC[C@H]4[C@H](C)CC[C@@H]([C@H]1C)[C@@]24OO3 (some centres undefined)	-0.03
CCO[C@H]1O[C@@H]2O[C@@]3(C)CC[C@H]4C(C)C(F)(F)C[C@@H]([C@H]1C)[C@@]24OO3 (some centres undefined)	0.19
C[C@@H]1CC[C@H]2C(=O)C(=O)O[C@@H]3O[C@@]4(C)CC[C@@H]1[C@]32OO4	-2.47
C[C@@H]1CCC2[C@@H](C)COC3OC4(CCCC4)OO[C@@]32C1 (some centres undefined)	-0.26
CO[C@H]1O[C@@]2(C)CC[C@H]3CCC[C@@H](CCOCc4ccccn4)[C@]31OO2	0.17
CCOC(=O)C[C@H](O[C@H]1O[C@@H]2O[C@@]3(C)CC[C@H]4[C@H](C)CC[C@@H]([C@H]1C)[C@@]24OO3)c1ccc([N+](=O)[O-])cc1	1.57
CCO[C@H]1O[C@@H]2O[C@@]3(C)CC[C@H]4C(C=O)CC[C@@H]([C@H]1C)[C@@]24OO3 (some centres undefined)	0.21
CCCC[C@@]12CC[C@H]3[C@H](C)CC[C@H]4CC(=O)O[C@H](O1)[C@]43OO2	-0.74
C[C@H]1[C@@H](O[C@@H](CC(=O)O)c2ccc([N+](=O)[O-])cc2)O[C@@H]2O[C@@]3(C)CC[C@H]4[C@H](C)CC[C@@H]1[C@@]24OO3	0.1
CO[C@H]1O[C@]2(C)OO[C@]13[C@H](CCO)CCC[C@@H]3CC2(C)C	-1.8

Compound	Log RA
CO[C@H]1O[C@@]2(C)CC[C@H]3CCC[C@@H](CCOCc4ccccc4)[C@]31OO2	0.75
COC(=O)c1ccccc1S(=O)(=O)OCC[C@@H]1CCC[C@@H]2CC[C@@]3(C)OO[C@]21[C@@H](OC)O3	-0.87
CC[C@@]12CC[C@H]3[C@H](C)CC[C@H]4CC(=O)O[C@H](O1)[C@]43O2	-4
C[C@@H]1CC[C@H]2[C@@H](C)C(=O)N[C@@H]3O[C@@]4(C)CC[C@@H]1[C@]32OO4	0
CC[C@@]12CC[C@H]3[C@H](C)CC[C@H]4CC(=O)O[C@H](O1)[C@]43OO2	0.05
C[C@@H]1CC[C@H]2CCO[C@@H]3O[C@@]4(CCCc5ccc(Cl)cc5)CC[C@@H]1[C@@]23OO4	-0.55
C/C=C1\C(=O)O[C@@H]2O[C@@]3(C)CC[C@H]4[C@H](C)CC[C@@H]1[C@@]24OO3	-0.36
C[C@H]1[C@@H](O[C@@H](C)c2ccc(C(=O)O)cc2)O[C@@H]2O[C@@]3(C)CC[C@H]4[C@H](C)CC[C@@H]1[C@@]24OO3	0.21
CO[C@H]1O[C@@]2(C)CC[C@H]3CCC[C@@H](CCOCc4ccc(-c5ccccc5)cc4)[C@]31OO2	0.32
C[C@@H]1CC[C@H]2[C@@H](C)C(=O)N(Cc3ccccn3)[C@@H]3O[C@@]4(C)CC[C@@H]1[C@@]23O4	-4
CCC[C@H]1CO[C@@H]2O[C@@]3(C)CC[C@H]4[C@H](C)CC[C@@H]1[C@@]24OO3	0.74
CCN(CC)C(=O)c1ccc(C(=O)OCC[C@@H]2CCC[C@@H]3CC[C@@]4(C)OO[C@]32[C@@H](OC)O4)cc1	0.23
CCN(CC)C(=O)OCC[C@@H]1CCC[C@@H]2CC[C@@]3(C)OO[C@]21[C@H](OC)O3	0.65
C/C=C\C[C@@H]1C(=O)O[C@@H]2O[C@@]3(C)CC[C@H]4[C@H](C)CC[C@@H]1[C@@]24OO3	-1.1
C[C@@H]1CC[C@H]2[C@@H](C)C(OC(C)(C)C)O[C@@H]3O[C@@]4(C)CC[C@@H]1[C@]32OO4 (some centres undefined)	0.92
CO[C@H]1O[C@@]2(C)CC[C@H]3CCC[C@@H](CCOS(=O)(=O)c4cccc5c(N(C)C)cccc45)[C@]31OO2	0.03
CC1=CO[C@@H]2O[C@@]3(C)CC[C@H]4[C@H](C)CC[C@@H]1[C@@]24OO3	0.78
C[C@@H]1CCC2[C@@H](C)C(=O)OC3OC(C)(C)OO[C@@]32C1 (some centres undefined)	-0.15
CCC[C@H](Cc1ccccc1)OC1O[C@@H]2O[C@@]3(C)CC[C@H]4[C@H](C)CC[C@@H]([C@H]1C)[C@@]24OO3 (some centres undefined)	-0.09
COC1O[C@@H]2O[C@@]3(C)CC[C@H]4[C@H](C)CC[C@@H]([C@H]1C)[C@@]24OO3 (some centres undefined)	0.28
C[C@@H]1CCC2[C@@H](C)COC3OC(C)(C)OO[C@@]32C1 (some centres undefined)	-0.8
CCCC[C@H]1C(=O)O[C@@H]2O[C@@]3(CCC(=O)OCC)CC[C@H]4[C@H](C)CC[C@@H]1[C@@]24OO3	-1.36
CCOC1O[C@@H]2O[C@@]3(C)CC[C@H]4[C@H](C)CC[C@H]([C@@]24OO3)[C@]1(C)O (some centres undefined)	-0.44

Compound	Log RA
C[C@@H]1CC[C@H]2[C@@H](C)C(=O)N(CC=O)[C@@H]3O[C@@]4(C)CC[C@@H]1[C@@]23OO4	1.47
CO[C@H]1O[C@@]2(C)CC[C@H]3CCC[C@@H](CCOC(=O)c4ccc(C(=O)O)cc4)[C@]31OO2	-0.81
C[C@@H]1CC[C@H]2CC(=O)O[C@@H]3O[C@@]4(CCCc5ccc(Cl)cc5)CC[C@@H]1[C@@]23OO4	0.1
C[C@@H]1CC[C@@H]2[C@]34OO[C@](C)(CC[C@@H]13)O[C@H]4OC(Nc1ccccc1)[C@@]2(C)Br (some centres undefined)	0.18
C[C@@H]1CC[C@H]2CC(=O)N(CCc3ccccc3)[C@@H]3O[C@@]4(C)CC[C@@H]1[C@@]23OO4	0.16
C[C@]12CC[C@H]3CCCC[C@@]3(OO1)[C@H](OCc1ccccc1)O2	-0.09
CCOC(=O)COC1O[C@@H]2O[C@@]3(C)CC[C@H]4[C@H](C)CC[C@@H]([C@H]1C)[C@@]24OO3 (some centres undefined)	0.52
C[C@@H]1CC[C@H]2[C@@H](C)C(=O)N(c3cccs3)[C@@H]3O[C@@]4(C)CC[C@@H]1[C@@]23OO4	0.17
C[C@@H]1CC[C@@H]2[C@]34OO[C@](C)(CC[C@@H]13)O[C@H]4OC(O)[C@]21CO1 (some centres undefined)	-0.57
CCCN1C(=O)C[C@@H]2CC[C@@H](C)[C@@H]3CC[C@@]4(C)OO[C@@]23[C@H]1O4	0.05
COc1ccc([C@@]23CCC[C@](c4ccc(OC)cc4)(CC2)OO3)cc1	-0.67
C[C@@H]1CC[C@H]2C3(CC3)C(=O)O[C@@H]3O[C@@]4(C)CC[C@@H]1[C@]32OO4	-0.94
CO[C@H]1O[C@@]2(C)CC[C@H]3CCC[C@@H](CCOC(=O)c4ccc(C(=O)OCCN(C)C)cc4)[C@]31OO2	-0.6
C[C@@H]1CC[C@@H]2[C@]34OO[C@](C)(CC[C@@H]13)O[C@H]4OC(=O)[C@@]21CO1	-2.09
C[C@@H]1CC[C@H]2CC(=O)N(Cc3ccc(Cl)cc3)[C@@H]3O[C@@]4(C)CC[C@@H]1[C@@]23OO4	-0.16
C[C@@H]1CC[C@H]2[C@@H](C)C(=O)N[C@@H]3O[C@@]4(C)CC[C@@H]1[C@]32O4	-4
CCOC(=O)C[C@@H](O[C@H]1O[C@@H]2O[C@@]3(C)CC[C@H]4[C@H](C)CC[C@@H]([C@H]1C)[C@@]24OO3)c1ccccc1	1.07
COCC[C@@H]1CCC[C@@H]2CC[C@@]3(C)OO[C@]21[C@@H](OC)O3	-0.39
CC(C)CCC[C@H]1C(=O)O[C@@H]2O[C@@]3(C)CC[C@H]4[C@H](C)CC[C@@H]1[C@@]24OO3	-0.04
C[C@@H]1CC[C@@H]2[C@]34OO[C@](C)(CC[C@@H]13)O[C@H]4OC(Nc1nccs1)[C@@]2(C)Br (some centres undefined)	0.66
CO[C@H]1O[C@]2(C)OO[C@]13[C@H](CCO)CCC[C@@H]3C[C@H]2C	-1.8
C[C@@]12CC[C@H]3CCC[C@H]4CC(=O)O[C@H](O1)[C@@]34OO2	-0.36
CC1CCO[C@@H]2O[C@@]3(C)CC[C@H]4[C@H](C)CC[C@@H]1[C@@]24OO3 (some centres undefined)	-1.2
